According to patent publication US8536332B2, “Modulating signal transduction pathways with substituted pyridol [2,3-b] pyrazines” (Aeterna Zentaris GmbH, priority 2007, dated 2013):

`CCNC(=S)Nc1cnc2ccc(Nc3ccccc3O)nc2n1` [Compound 197, 1-Ethyl-3-[6-(2-hydroxy-phenylamino)-pyrido[2,3-b]pyrazin-3-yl]-thiourea] gave a melting point of 211 °C. Work on `CCNC(=S)Nc1cnc2ccc(Nc3ccc(Cl)cc3)nc2n1` [Compound 217, 1-[6-(4-Chloro-phenylamino)-pyrido[2,3-b]pyrazin-3-yl]-3-ethyl-thiourea] yielded a melting point of 185 °C. Molecule `CCNC(=O)Nc1cnc2ccc(-c3cc(C)c(O)c(Cl)c3)nc2n1` [Compound 642, 1-[6-(3-Chloro-4-hydroxy-5-methyl-phenyl)-pyrido[2,3-b]pyrazin-3-yl]-3-ethyl-urea] has a melting point of 266 °C. Molecule `COc1cc(-c2ccc3ncc(NC(=O)NC(C)C)nc3n2)ccc1O` [Compound 19, 1-[6-(4-Hydroxy-3-methoxy-phenyl)-pyrido[2,3-b]pyrazin-3-yl]-3-isopropyl-urea] has a melting point of 212 to 214 °C. `Cc1cc(-c2ccc3ncc(NC(=O)NC4CCN(C(=O)C(F)(F)F)CC4)nc3n2)cc(C)c1O` [Compound 589] gave a melting point of 251 to 253 °C. With `CCNC(=O)Nc1ccc2ncc(Nc3cccc(CO)c3)nc2n1` [Compound 154, 1-Ethyl-3-[3-(3-hydroxymethyl-phenylamino)-pyrido[2,3-b]pyrazin-6-yl]-urea] the melting point was 238 °C. `COc1cc(Nc2cnc3ccc(NC(=S)NC(C)(C)C)nc3n2)cc(OC)c1OC` [Compound 694, 1-tert-Butyl-3-[3-(3,4,5-trimethoxy-phenylamino)-pyrido[2,3-b]pyrazin-6-yl]-thiourea] showed a melting point of 218 to 220 °C. `CCNC(=O)Nc1ccc2ncc(-c3ccc(OP(=O)(OCC)OCC)c(OC)c3)nc2n1` gave a melting point of 182 to 184 °C. `CCNC(=O)Nc1ccc2ncc(-c3cccc(C)c3)nc2n1` [Compound 100, 1-Ethyl-3-(3-m-tolyl-pyrido[2,3-b]pyrazin-6-yl)-urea] gave a melting point of 232 to 234 °C. `COc1cc(Nc2cnc3ccc(NC(=S)Nc4c(C)noc4C)nc3n2)cc(OC)c1OC` [Compound 695, 1-(3,5-Dimethyl-isoxazol-4-yl)-3-[3-(3,4,5-trimethoxy-phenylamino)-pyrido[2,3-b]pyrazin-6-yl]-thiourea] gave a melting point of 247 °C. For `CCNC(=O)Nc1ccc2ncc(-c3ccccc3F)nc2n1` [Compound 103, 1-Ethyl-3-[3-(2-fluoro-phenyl)-pyrido[2,3-b]pyrazin-6-yl]-urea], the melting point was 226 to 228 °C. For `CCNC(=O)Nc1ccc2ncc(-c3cccc(NS(C)(=O)=O)c3)nc2n1` [Compound 120, N-{3-[6-(3-Ethyl-ureido)-pyrido[2,3-b]pyrazin-3-yl]-phenyl}-methanesulfonamide], the melting point was 224 to 228 °C. For `CCNC(=O)Nc1ccc2ncc(Nc3cc(C(C)(C)C)ccc3O)nc2n1` [Compound 336, 1-[3-(5-tert-Butyl-2-hydroxy-phenylamino)-pyrido[2,3-b]pyrazin-6-yl]-3-ethyl-urea], the melting point was 255 °C. `CCNC(=O)Nc1ccc2ncc(-c3cc(Cl)ccc3Cl)nc2n1` [Compound 92, 1-[3-(2,5-Dichloro-phenyl)-pyrido[2,3-b]pyrazin-6-yl]-3-ethyl-urea] gave a melting point of 264 to 269 °C. With `CCNC(=O)Nc1cnc2ccc(Nc3ccc(O)c(OC)c3)nc2n1` [Compound 21, 1-Ethyl-3-[6-(4-hydroxy-3-methoxy-phenylamino)-pyrido[2,3-b]pyrazin-3-yl]-urea] the melting point was 255 °C. Work on `CCNC(=O)Nc1ccc2ncc(-c3cccc(OC(F)(F)F)c3)nc2n1` [Compound 118, 1-Ethyl-3-[3-(3-trifluoromethoxy-phenyl)-pyrido[2,3-b]pyrazin-6-yl]-urea] yielded a melting point of 239 to 240 °C. With `CCNC(=O)Nc1ccc2ncc(-c3cnc(N)nc3)nc2n1` [Compound 72, 1-[3-(2-Amino-pyrimidin-5-yl)-pyrido[2,3-b]pyrazin-6-yl]-3-ethyl-urea] the melting point was greater than 300 °C. `CCNC(=S)Nc1cnc2ccc(Nc3ccc(C)c(NS(C)(=O)=O)c3)nc2n1` [Compound 207, N-{5-[3-(3-Ethyl-thioureido)-pyrido[2,3-b]pyrazin-6-ylamino]-2-methyl-phenyl}-methanesulfonamide] gave a melting point of 236 °C. Work on `CCNC(=O)Nc1cnc2ccc(-c3cc(C(C)(C)C)c(O)c(C(C)(C)C)c3)nc2n1` [Compound 596, 1-[6-(3,5-Di-tert-butyl-4-hydroxy-phenyl)-pyrido[2,3-b]pyrazin-3-yl]-3-ethyl-urea] yielded a melting point of 263 °C. With `CCCOc1ccc(-c2cnc3ccc(NC(=O)NCC)nc3n2)cc1` [Compound 133, 1-Ethyl-3-[3-(4-propoxy-phenyl)-pyrido[2,3-b]pyrazin-6-yl]-urea] the melting point was 258.7 °C. With `CCNC(=O)Nc1ccc2ncc(-c3ccc(NC(=O)CCC(=O)OC)cc3)nc2n1` [Compound 76, N-{4-[6-(3-Ethyl-ureido)-pyrido[2,3-b]pyrazin-3-yl]-phenyl}-succinamic acid methyl ester] the melting point was 253 °C. In the case of `CCNC(=O)Nc1cnc2ccc(N3CCN(C)CC3)nc2n1` [Compound 227, 1-Ethyl-3-[6-(4-methyl-piperazin-1-yl)-pyrido[2,3-b]pyrazin-3-yl]-urea], the melting point is reported as 214 to 216 °C. `COCCCNC(=S)Nc1ccc2ncc(Nc3cc(OC)c(OC)c(OC)c3)nc2n1` [Compound 710, 1-(3-Methoxy-propyl)-3-[3-(3,4,5-trimethoxy-phenylamino)-pyrido[2,3-b]pyrazin-6-yl]-thiourea] showed a melting point of 246 °C. `COc1cc(-c2ccc3ncc(NC(=O)Nc4cccnc4)nc3n2)ccc1O` [Compound 611, 1-[6-(4-Hydroxy-3-methoxy-phenyl)-pyrido[2,3-b]pyrazin-3-yl]-3-pyridin-3-yl-urea] showed a melting point of 245 to 248 °C. With `COc1cc(-c2ccc3ncc(NC(=O)N[C@@H]4C[C@H]4c4ccccc4)nc3n2)ccc1O` [Compound 603, 1-[6-(4-Hydroxy-3-methoxy-phenyl)-pyrido[2,3-b]pyrazin-3-yl]-3-((1R,2S)-2-phenyl-cyclopropyl)-urea] the melting point was 233 to 236 °C. In the case of `CCNC(=O)Nc1cnc2ccc(Cl)nc2n1` [Example 1, 1-(6-Chloro-pyrido[2,3-b]pyrazin-3-yl)-3-ethyl-urea], the melting point is reported as 240 °C. `CCNC(=O)Nc1cnc2ccc(-c3ccc(O)cc3)nc2n1` [Compound 182, 1-Ethyl-3-[6-(4-hydroxy-phenyl)-pyrido[2,3-b]pyrazin-3-yl]-urea] gave a melting point of 277 to 279 °C. For `CCNC(=O)Nc1cnc2ccc(-c3ccc(O)c(Br)c3)nc2n1` [Compound 641, 1-[6-(3-Bromo-4-hydroxy-phenyl)-pyrido[2,3-b]pyrazin-3-yl]-3-ethyl-urea], the melting point was 291 °C. Work on `CCNC(=O)Nc1cnc2ccc(-c3ccc(C)cc3)nc2n1` [Compound 178, 1-Ethyl-3-(6-p-tolyl-pyrido[2,3-b]pyrazin-3-yl)-urea] yielded a melting point of 227 to 228 °C. `CCNC(=O)Nc1ccc2ncc(-c3cccc(C#N)c3)nc2n1` [Compound 114, 1-[3-(3-Cyano-phenyl)-pyrido[2,3-b]pyrazin-6-yl]-3-ethyl-urea] showed a melting point of 253 to 257 °C. With `CCNC(=O)Nc1cnc2ccc(Nc3ccc(O)cc3)nc2n1` [Compound 24, 1-Ethyl-3-[6-(4-hydroxy-phenylamino)-pyrido[2,3-b]pyrazin-3-yl]-urea] the melting point was 277 °C. `COc1cc(-c2ccc3ncc(NC(=O)Nc4ccc(F)cc4)nc3n2)ccc1O` [Compound 600, 1-(4-Fluoro-phenyl)-3-[6-(4-hydroxy-3-methoxy-phenyl)-pyrido[2,3-b]pyrazin-3-yl]-urea] gave a melting point of 244 to 246 °C. With `COc1ccc(-c2ccc3ncc(NC(=O)NCCc4ccccc4)nc3n2)cc1OC` [Compound 577, 1-[6-(3,4-Dimethoxy-phenyl)-pyrido[2,3-b]pyrazin-3-yl]-3-phenethyl-urea] the melting point was 254 to 257 °C. For `CNC(=O)Nc1cnc2ccc(-c3ccc(O)c(OC)c3)nc2n1` [Compound 172, 1-[6-(4-Hydroxy-3-methoxy-phenyl)-pyrido[2,3-b]pyrazin-3-yl]-3-methyl-urea], the melting point was 242 to 244 °C. For `CCNC(=S)Nc1ccc2ncc(Nc3ccc(C(C)=O)cc3)nc2n1` [Compound 467, 1-[3-(4-Acetyl-phenylamino)-pyrido[2,3-b]pyrazin-6-yl]-3-ethyl-thiourea], the melting point was 232 °C. Work on `Cc1noc(C)c1NC(=O)Nc1cnc2ccc(-c3cc(Cl)c(O)c(Cl)c3)nc2n1` [Compound 562, 1-[6-(3,5-Dichloro-4-hydroxy-phenyl)-pyrido[2,3-b]pyrazin-3-yl]-3-(3,5-dimethyl-isoxazol-4-yl)-urea] yielded a melting point of 257 to 260 °C. `CCNC(=O)Nc1cnc2ccc(Nc3cccc(CC(=O)O)c3)nc2n1` [Compound 194, {3-[3-(3-Ethyl-ureido)-pyrido[2,3-b]pyrazin-6-ylamino]-phenyl}-acetic acid] showed a melting point of 305 to 308 °C. In the case of `CCNC(=O)Nc1cnc2ccc(-c3ccc(N)c(OC)c3)nc2n1` [Compound 2, 1-[6-(4-Amino-3-methoxy-phenyl)-pyrido[2,3-b]pyrazin-3-yl]-3-ethyl-urea], the melting point is reported as greater than 310 °C. Work on `CCNC(=O)Nc1ccc2ncc(-c3ccccc3C)nc2n1` [Compound 105, 1-Ethyl-3-(3-o-tolyl-pyrido[2,3-b]pyrazin-6-yl)-urea] yielded a melting point of 218 to 220 °C. Work on `CCNC(=O)Nc1ccc2ncc(Nc3ccccc3)nc2n1` [Compound 64, 1-Ethyl-3-(3-phenylamino-pyrido-[2,3-b]pyrazin-6-yl)-urea] yielded a melting point of 229 to 231 °C. Molecule `CCCOc1c(C)cc(-c2ccc3ncc(NC(=O)NCC)nc3n2)cc1C` [Compound 598, 1-[6-(3,5-Dimethyl-4-propoxy-phenyl)-pyrido[2,3-b]pyrazin-3-yl]-3-ethyl-urea] has a melting point of 232 °C. `CCNC(=O)Nc1ccc2ncc(-c3cccc(C(=O)OCC)c3)nc2n1` [Compound 119, 3-[6-(3-Ethyl-ureido)-pyrido[2,3-b]pyrazin-3-yl]-benzoic acid ethyl ester] showed a melting point of 222 to 223 °C.
